Reference: patent US7537906B2, “Apoptosis inducer and method of screening for a substance inhibiting acylated homoserine lactone” (priority 2003, dated 2009)

What was measured:
Akt [1] = assay: Akt activity by Western blot in porcine vascular endothelial cells (PECs); assay type: cell-based; conditions: 100 μM, 10 minutes
Method: Porcine vascular endothelial cells (PECs) were cultured at 37° C. in the presence of 5% CO2 using a DMEM medium containing 10% FCS, 1% NEAA and 1% P/S (100 units/ml penicillin and 100 μg/ml streptomycin).
6×10^5 PECs were inoculated per dish using 6 cm dishes (NUNC), washed twice with phosphate buffered saline (PBS) (-), and then cultured for 24 hours in a serum-free DMEM medium containing 1% NEAA. Subsequently, at a final concentration of 100 μM, homoserine lactone hydrochloride, N-butyryl-L-homoserine lactone, N-(3-oxohexanoyl)-L-homoserine lactone and N-(3-oxododecanoyl)-L-homoserine lactone were each added, and then each solution was allowed to react for 10 minutes. Similarly to (1), the effect of acylated homoserine lactone on Akt activity in PECs were examined by Western blotting.

CaCo-2 cells = assay: Evaluation of apoptosis by DNA fragmentation (DNA ladder); assay type: cell-based, human; conditions: CaCo-2 cells cultured for 12 hours, 0-100 μM
Method: 5×10^6 CaCo-2 cells were inoculated per 15 cm dish (NUNC), washed twice with PBS (-), and then cultured in a serum-free DMEM medium containing 1% NEAA for 24 hours. N-(3-oxododecanoyl)-L-homoserine lactone was added at each concentration (1 μM to 100 μM), followed by 12 hours of culture. Subsequently, the supernatant and the cells removed from the dish using TE were centrifuged at room temperature at 800 rpm for 5 minutes, and the supernatant was removed. The cells were suspended with 300 μl of PBS (-), and then the suspension was centrifuged again at 4° C. at 2500 rpm for 5 minutes, and the supernatant was removed. The cells were lysed by the addition of 300 μl of a cytolysis buffer [10 mM Tris-HCl (pH 7.4), 10 mM EDTA (pH 8.0), 0.5% Triton X-100], and then allowed to stand on ice for 10 minutes, thereby extracting DNA fragments. The extract was centrifuged at 4° C. at 14000 rpm for 10 minutes. RNase A was added to the obtained supernatant, and then incubation was carried out at 37° C. for 1 hour. Proteinase K was further added, and then incubation was carried out at 50° C. for 30 minutes. The extract of the DNA fragments was concentrated by ethanol precipitation, and then electrophoresis was carried out using 2% agarose gel. After the gel was stained with ethidium bromide, DNA fragmentation was detected under a UV transilluminator.

caspase-3 = assay: Caspase activity by Western blot (cleaved caspase-3) in CaCo-2 cells; assay type: cell-based, human
Method: (§1) The activities of caspase (caspase-3 and caspase-9) and PARP (poly-ADP ribose polymerase) were measured in a manner similar to those in Examples 1 and 2 by Western blot analysis using each of anti-activated (cleaved) caspase antibodies, that is, an anti-cleaved caspase-3 antibody, an anti-cleaved caspase-9 antibody (D330) and an anti-cleaved PARP antibody (D214).
(§2) N-(3-oxododecanoyl)-L-homoserine lactones with final concentrations of 30 μM and 100 μM were each added to cultured CaCo-2 cells. Caspase-3, caspase-9 and PARP activities were analyzed over time by Western blot at 0 hours, 1 hour, 2 hours, 4 hours, 6 hours, 8 hours and 10 hours after culture. […] Whereas at 30 μM, activated caspase-3 began to be detected 1 hour after stimulation and the activity lasted until 4 hours after stimulation, at 100 μM the activity peaked at 6 hours and lasted until 10 hours after stimulation. Cleaved caspase-9 and cleaved PARP were detected by reprobing each membrane.
(§3) Next, 3 hours of reaction with N-(3-oxododecanoyl)-L-homoserine lactone was carried out at concentrations of 0, 1, 10, 30, and 100 μM, and then caspase and PARP activities were measured.

caspase-9 = assay: Caspase activity by Western blot (cleaved caspase-9) in CaCo-2 cells; assay type: cell-based, human
Method: as §1, §2, §3

Akt [2] = assay: Akt activity (phospho-Akt) by Western blot in CaCo-2 cells; assay type: cell-based, human; conditions: stimulation at 10 μM
TNF-α = conditions: mouse macrophage culture system; cited from earlier work
[3] = 3 hours of reaction, 0, 1, 10, 30 and 100 μM

Q: What does the source list for `CCCCCCCCCC(=O)CC(=O)N[C@H]1CCOC1=O` [N-(3-oxododecanoyl)-L-homoserine lactone]?
A: Akt activity in PECs (Akt [1]): significantly decreases; concentration at which the DNA ladder was observed (CaCo-2 cells): ≥ 30 µM; caspase-3 activity lasted until (after stimulation) (caspase-3; 30 μM): 4 h; time at which activated caspase-3 began to be detected after stimulation (caspase-3; 30 μM): 1 h; caspase-3 activity lasted until (after stimulation) (caspase-3; 100 μM): 10 h; time of peak caspase-3 activity (caspase-3; 100 μM): 6 h; concentration at which cleaved caspase (caspase-3) was detected (caspase-3; [3]): ≥ 30 µM; caspase-9 activity over time (caspase-9; 30 μM): strong at 1, 2 and 4 hours; weak caspase-9 activity lasted until (after stimulation) (caspase-9; 30 μM): 8 h; strong caspase-9 activity lasted until (after stimulation) (caspase-9; 100 μM): 8 h; concentration at which cleaved caspase (caspase-9) was detected (caspase-9; [3]): ≥ 30 µM; inhibition of Akt activity lasted until (after stimulation) (Akt [2]): 6 h; TNF-α production (TNF-α): promotes
